From the supplement of paper PMC10307832

Key:
Test in all cases: relative viability (nuclei count vs DMSO), 5 days (fraction); higher = more cells survive
[1] = compound: NCC(=O)Nc1ccc(-n2nc(C(F)(F)F)cc2-c2ccc3c(ccc4ccccc43)c2)cc1 + C[C@]1(O)C[C@@H](c2nc(-c3ccc4ccc(-c5ccccc5)nc4c3)c3c(N)nccn32)C1 [Linsitinib] (partner 1 µM)
Method in brief: (§1)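 Nuclei were stained with Hoechst during a one-step fixation (final 0.05% Triton X-100, 1% formaldehyde, 1 ug/ml Hoechst) carried out 5 days after dosing, then counted on 4× images. The cells, lung cancer lines in 1536-well plates, had been dosed by pin tool the day after seeding with one drug alone or a fixed anchor-drug dose plus five library-drug doses (not always all listed) in √10 steps. Relative viability is the nuclei count in treated wells divided by that in vehicle wells, and each value is the median of duplicate plates.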

[2] = compound: NCC(=O)Nc1ccc(-n2nc(C(F)(F)F)cc2-c2ccc3c(ccc4ccccc43)c2)cc1 + CCNC(=O)c1noc(-c2cc(C(C)C)c(O)cc2O)c1-c1ccc(CN2CCOCC2)cc1 [Luminespib] (partner 0.01 µM)
Method in brief: as §1

[3] = compound: NCC(=O)Nc1ccc(-n2nc(C(F)(F)F)cc2-c2ccc3c(ccc4ccccc43)c2)cc1 + Cc1nc(Nc2ncc(C(=O)Nc3c(C)cccc3Cl)s2)cc(N2CCN(CCO)CC2)n1 [Dasatinib] (partner 0.075 µM)
Method in brief: as §1

[4] = compound: C1CSC2=C(C(=O)N1)SC3=C2C=C(C=C3)O [kb NB 142-70] + CC(C)C[C@H](NC(=O)[C@H](Cc1ccccc1)NC(=O)c1cnccn1)B(O)O [Bortezomib] (partner 0.002 µM)
Method in brief: as §1

Cell Line | relative viability ([1]; first compound 0.02 µM) | relative viability ([1]; first compound 0.06325 µM) | relative viability ([1]; first compound 0.2 µM) | relative viability ([1]; first compound 0.6325 µM) | relative viability ([1]; first compound 2 µM) | relative viability ([2]; first compound 0.02 µM) | relative viability ([2]; first compound 0.06325 µM) | relative viability ([2]; first compound 0.2 µM) | relative viability ([2]; first compound 0.6325 µM) | relative viability ([2]; first compound 2 µM) | relative viability ([3]; first compound 0.02 µM) | relative viability ([3]; first compound 0.06325 µM) | relative viability ([3]; first compound 0.2 µM) | relative viability ([3]; first compound 0.6325 µM) | relative viability ([3]; first compound 2 µM) | relative viability ([4]; first compound 0.1 µM) | relative viability ([4]; first compound 1 µM) | relative viability ([4]; first compound 3.162 µM)
201T | 0.957 | 1.01 | 1.09 | 1.09 | 1.04 | 1.1 | 1.07 | 1.11 | 1.03 | 1.06 | 0.518 | 0.571 | 0.56 | 0.53 | 0.542 | 1.09 | 1.17 | 1.11
A549 | 0.626 | 0.599 | 0.608 | 0.579 | 0.614 |  |  |  |  |  |  |  |  |  |  |  |  | 
A-427 | 1.12 | 1.17 | 1.16 | 1.02 | 1.03 | 0.886 | 0.849 | 1.06 | 0.864 | 0.996 |  | 0.692 | 0.724 | 0.682 | 0.672 | 1.01 | 1.05 | 1.01
ABC-1 | 0.731 | 0.917 |  | 0.915 | 0.855 | 0.478 | 0.813 |  | 0.372 | 0.748 | 0.613 | 0.602 |  | 0.59 | 0.49 | 0.373 | 0.278 | 0.239
BEN | 0.885 | 1.06 | 0.923 | 0.861 | 0.914 | 0.254 | 0.67 | 0.211 | 0.467 | 0.311 | 0.283 | 0.332 | 0.244 | 0.333 | 0.304 | 0.942 | 0.669 | 0.418
CAL-12T | 0.718 | 0.836 | 0.865 | 0.775 | 0.819 | 0.54 | 0.22 | 0.531 | 0.536 | 0.463 | 0.494 | 0.691 | 0.454 | 0.425 | 0.495 | 1.01 | 1.04 | 0.819
COR-L23 | 0.989 | 0.927 | 1.05 | 0.896 | 0.95 | 0.599 | 0.652 | 0.772 | 0.57 | 0.757 | 0.481 | 0.504 | 0.566 | 0.481 | 0.531 | 0.872 | 0.913 | 0.51
COR-L 105 | 0.918 | 0.943 | 0.98 | 1.02 | 1.15 | 0.915 | 0.78 | 1.01 | 0.704 | 1.15 | 0.388 | 0.426 | 0.362 | 0.418 | 0.413 | 0.871 | 0.828 | 0.903
Calu-6 | 0.914 | 0.939 | 1.06 | 0.911 | 0.983 |  |  |  |  |  |  |  |  |  |  | 1.01 | 0.946 | 0.62
ChaGo-K-1 |  |  |  |  |  | 0.614 | 0.501 | 0.54 | 0.548 | 0.567 | 0.53 | 0.604 | 0.47 | 0.646 | 0.579 | 1.06 | 1.1 | 0.951
EBC-1 | 0.888 | 0.856 | 0.892 | 0.899 | 0.895 |  |  |  |  |  |  |  |  |  |  | 0.592 | 0.546 | 0.358
